Data reported in patent publication US20070156046A1, “Method of enriching hyperpolarized atom nuclei and an apparatus for implementing the method” (priority 2004, published 2007).

Columns and labels:
[1] = solubility (Ostwald coefficient) of ^129Xe in toluol and ethanol depending on the temperature of the solvent; format: physicochemical; details: for increase of the density compared to the gas phase: 180° K; for density of ^129Xe compared with the gas phase: about 240° K
Method: Solubility is defined as the density of the hyperpolarized gas in the solvent relative to the density of the hyperpolarized gas in the gas chamber situated above a given temperature and pressure. The solubility is also referred to as the Ostwald coefficient.
An even higher solubility of ^129Xe in the solvent is obtained by cooling to temperatures of 180° K, thereby obtaining a 100-fold increase of the density in both toluol and ethanol compared to the gas phase. Further cooling by just a few degrees Kelvin already results in an increase of the Ostwald coefficient to a value of 200 (FIG. 2).

[2] = ^129Xe densities in the solvent in the two-stage enrichment apparatus; format: physicochemical; details: solvent toluol/ethanol
Method: A gas mixture 1 with hyperpolarized atomic nuclei flows from a polarizer (not shown) into a first chamber 2 containing a cooled solvent. Chamber 2 has means for cooling the solvent. The solvent containing the gas mixture is thereby cooled to-a temperature T1, of, e.g. 180° K.
The gas components are enriched in chamber 2 according to their solubility in the solvent, and thus separated from one another. The unnecessary components of the mixture are released through valve 3. The solvent enriched with the hyperpolarized atomic nuclei is guided through a connection line out of chamber 2 into a further chamber 5. Chamber 5 comprises means for degassing, such as an apparatus for producing ultrasound and/or heating.
Chamber 5 thus represents a degassing chamber 5 for the hyperpolarized atomic nuclei from the solvent. In chamber 5, a gas pressure of the originally dissolved gas arises due to the degassing of the hyperpolarized atomic nuclei via the solvent. The gas pressure is determined by the partial pressure of the hyperpolarized atomic nuclei (gas component) in solvent chamber 2, and the ratio of the solubilities of this gas component in the solvent at temperatures T1 in chamber 2 and T2 in chamber 5.
Following degassing in chamber 5, the solution and degassing process may be repeated, as represented in FIG. 2 by continuous lines. For this, starting from chamber 5 at the end of the first enrichment stage, the gas with the hyperpolarized atomic nuclei is guided into chamber 6, where it is cooled to the temperature T1. Following enrichment in the solvent, the gas is conducted into chamber 8 with a temperature of T2 for degassing. Chamber 8, again, has a sufficient volume.
The following ^129Xe densities in the solvent (toluol/ethanol) may be set at different temperatures: […]

increase of the density compared to the gas phase ([1]; in ethanol): 100 fold | density of ^129Xe compared with the gas phase ([1]; in ethanol): ten times higher | increase of the density compared to the gas phase ([1]; in toluol): 100 fold | density of ^129Xe compared with the gas phase ([1]; in toluol): ten times higher | Ostwald coefficient ([1]; solvent ethanol, standard conditions (293° K, 1 bar)): about 2.5 | Ostwald coefficient ([1]; solvent toluol, standard conditions (293° K, 1 bar)): about 5 | solubility or Ostwald coefficient compared to at room temperature ([1]; temperature of 273° K, toluol and ethanol (FIG. 1)): clear increase | Ostwald coefficient ([1]; toluol and ethanol, further cooling by a few degrees Kelvin below 180° K): 200 | pXe, Sol, Stage 1 (Chamber 2) ([2]; T = 180°K): pXe, Sol −7.0 bar | pXe, Sol, Stage 2 (Chamber 6) ([2]; T = 180°K): ˜20 bar | pXe, Sol, Stage 1 (Chamber 2) ([2]; T = 200°K): pXe, Sol −2.1 bar | pXe, Sol, Stage 2 (Chamber 6) ([2]; T = 200°K): ˜10 bar | pXe, Sol, Stage 1 (Chamber 2) ([2]; T = 240°K): pXe, Sol −0.7 bar | pXe, Sol, Stage 2 (Chamber 6) ([2]; T = 240°K): ˜3.5 bar
SMILES: [Xe] [^129Xe, xenon]
